pIC50: −log10 of the molar value.

One may read the pIC50 as −log10 of the IC50, conventionally taken in molar units. Read a low pIC50 as a large IC50.

The target in the assay is T1, MAGL (Homo sapiens, UniProt Q99685).
T1 sequence (Q99685 1-303): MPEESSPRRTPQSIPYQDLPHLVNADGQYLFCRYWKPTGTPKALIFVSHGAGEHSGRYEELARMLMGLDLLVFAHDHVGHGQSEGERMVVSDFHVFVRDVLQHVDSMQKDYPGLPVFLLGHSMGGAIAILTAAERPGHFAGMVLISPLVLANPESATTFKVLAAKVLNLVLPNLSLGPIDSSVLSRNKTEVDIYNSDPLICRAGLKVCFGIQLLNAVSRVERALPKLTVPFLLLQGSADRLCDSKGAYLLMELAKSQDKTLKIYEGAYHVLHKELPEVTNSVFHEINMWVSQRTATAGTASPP
The assay can be described thus: 2-AG assay (MAGL inhibitory activity, hydrolysis of 2-arachidonoylglycerol followed by mass spectrometry). It counts as biochemical. The conditions noted are these: 50 pM MAGL, 8 μM 2-arachidonoylglycerol, 15 min pre-incubation, 30 min incubation at RT. As for the experimental part: Compounds were profiled for MAGL inhibitory activity by determining the enzymatic activity by following the hydrolysis of the natural substrate 2-arachidonoylglycerol (2-AG) resulting in arachidonic acid, which can be followed by mass spectrometry. This assay is hereinafter abbreviated “2-AG assay”.
The 2-AG assay was carried out in 384 well assay plates (PP, Greiner Cat#784201) in a total volume of 20 μL. Compound dilutions were made in 100% DMSO (VWR Chemicals 23500.297) in a polypropylene plate in 3-fold dilution steps to give a final concentration range in the assay from 12.5 μM to 0.8 pM. […] compound dilutions (100% DMSO) were added to 9 μL MAGL in assay buffer (50 mM TRIS (GIBCO, 15567-027), 1 mM EDTA (Fluka, 03690-100 mL), 0.01% (v/v) Tween. After shaking, the plate was incubated for 15 min at RT. To start the reaction, 10 μL 2-arachidonoylglycerol in assay buffer was added. The final concentrations in the assay was 50 pM MAGL and 8 μM 2-arachidonoylglyerol. After shaking and 30 min incubation at RT, the reaction was quenched by the addition of […] of ACN containing 4 μM of d8-arachidonic acid. The amount of arachidonic acid was traced by an online SPE system (Agilent Rapidfire) coupled to a triple quadrupole mass spectrometer (Agilent 6460). A C18 SPE cartridge (G9205A) was used in an ACN/water liquid setup. The mass spectrometer was operated in negative electrospray mode following the mass transitions 303.1→259.1 for arachidonic acid and 311.1→267.0 for d8-arachidonic acid. The activity of the compounds was calculated based on the ratio of intensities [arachidonic acid/d8-arachidonic acid].
The molecule `O=C(CCOCCOCCNc1ccc([N+](=O)[O-])c2nonc12)NCCOc1cccc(C(c2ccccc2)C2CCN(C(=O)N3CC[C@@H]4OCC(=O)N[C@@H]4C3)CC2)c1` (single isomer, unassigned) [Example 12, N-[2-[3-[(S or R)-[1-[(4aR,8aS)-3-Oxo-4,4a,5,7,8,8a-hexahydropyrido[4,3-b][1,4]oxazine-6-carbonyl]-4-piperidyl]-phenyl-methyl]phenoxy]ethyl]-3-[2-[2-[(4-nitro-2,1,3-benzoxadiazol-7-yl)amino]ethoxy]ethoxy]propanamide] showed a pIC50 of 9.30.
For `O=C(CCOCCOCCNc1ccc([N+](=O)[O-])c2nonc12)NCCOc1cccc(C(c2ccccc2)C2CCN(C(=O)N3CC[C@@H]4OCC(=O)N[C@@H]4C3)CC2)c1` (single isomer, unassigned) [Example 13, N-[2-[3-[(R or S)-[1-[(4aR,8aS)-3-Oxo-4,4a,5,7,8,8a-hexahydropyrido[4,3-b][1,4]oxazine-6-carbonyl]-4-piperidyl]phenyl-methyl]phenoxy]ethyl]-3-[2-[2-[(4-nitro-2,1,3-benzoxadiazol-7-yl)amino]ethoxy]ethoxy]propanamide], the negative-log IC50 (pIC50) is 8.80. This pIC50 is 0.50 log units lower than that of the molecule before.
For `CC(C)(C)OC(=O)NCCOCCC(=O)NCCOc1cccc(C(c2ccccc2)C2CCN(C(=O)N3CC[C@@H]4OCC(=O)N[C@@H]4C3)CC2)c1` (single isomer, unassigned) [Example 14, tert-Butyl N-[2-[3-[2-[3-[(S or R)-[1-[(4aR,8aS)-3-oxo-4,4a,5,7,8,8a-hexahydropyrido[4,3-b][1,4]oxazine-6-carbonyl]-4-piperidyl]-phenyl-methyl]phenoxy]ethylamino]-3-oxo-propoxy]ethyl]carbamate] the value was 8.89.
For `CC(C)(C)OC(=O)NCCOCCC(=O)NCCOc1cccc([C@@H](c2ccccc2)C2CCN(C(=O)N3CC[C@@H]4OCC(=O)N[C@@H]4C3)CC2)c1` (single isomer, unassigned) [Example 15, tert-Butyl N-[2-[3-[2-[3-[(R or S)-[1-1(4aR,8aS)-3-oxo-4,4a,5,7,8,8a-hexahydropyrido[4,3-b][1,4]oxazine-6-carbonyl]-4-piperidyl]-phenyl-methyl]phenoxy]ethylamino]-3-oxo-propoxy]ethyl]carbamate] the value was 8.49; for `NCCOCCC(=O)NCCOc1cccc([C@@H](c2ccccc2)C2CCN(C(=O)N3CC[C@@H]4OCC(=O)N[C@@H]4C3)CC2)c1` (single isomer, unassigned) [Example 16, N-[2-[3-[(R or S)-[1-1(4aR,8aS)-3-Oxo-4,4a,5,7,8,8a-hexahydropyrido[4,3-b][1,4]oxazine-6-carbonyl]-4-piperidyl]phenyl-methyl]phenoxy]ethyl]-3-(2-aminoethoxy)propanamide], 7.74; for `O=C(CCOCCNc1ccc([N+](=O)[O-])c2nonc12)NCCOc1cccc(C(c2ccccc2)C2CCN(C(=O)N3CCC4OCC(=O)NC4C3)CC2)c1` (single isomer, unassigned) [Example 17, N-[2-[3-[(S or R)-11-1(4aR,8aS)-3-Oxo-4,4a,5,7,8,8a-hexahydropyrido[4,3-b][1,4]oxazine-6-carbonyl]-4-piperidyl]-phenyl-methyl]phenoxy]ethyl]-3-[2-[(4-nitro-2,1,3-benzoxadiazol-7-yl)amino]ethoxy]propanamide], 9.15.
For the molecule `O=C(CCOCCNc1ccc([N+](=O)[O-])c2nonc12)NCCOc1cccc(C(c2ccccc2)C2CCN(C(=O)N3CCC4OCC(=O)NC4C3)CC2)c1` (single isomer, unassigned) [Example 18, N-[2-[3-[(R or S)-[1-1(4aR,8aS)-3-Oxo-4,4a,5,7,8,8a-hexahydropyrido[4,3-b][1,4]oxazine-6-carbonyl]-4-piperidyl]-phenyl-methyl]phenoxy]ethyl]-3-12-[(4-nitro-2,1,3-benzoxadiazol-7-yl)amino]ethoxy]propanamide], the pIC50 was 8.14.
`CC(C)(C)OC(=O)NCCOCCOCCOCCC(=O)NCCOc1cccc(C(c2ccccc2)C2CCN(C(=O)N3CC[C@@H]4OCC(=O)N[C@@H]4C3)CC2)c1` (single isomer, unassigned) [Example 19, tert-Butyl N-[2-[2-[2-[3-[2-[3-[(S or R)-[1-[(4aR,8aS)-3-oxo-4,4a,5,7,8,8a-hexahydropyrido[4,3-b][1,4]oxazine-6-carbonyl]-4-piperidyl]-phenyl-methyl]phenoxy]ethylamino]-3-oxo-propoxy]ethoxy]ethoxy]ethyl]carbamate] showed a pIC50 of 8.70.
For `NCCOCCOCCOCCC(=O)NCCOc1cccc([C@H](c2ccccc2)C2CCN(C(=O)N3CC[C@@H]4OCC(=O)N[C@@H]4C3)CC2)c1` (single isomer, unassigned) [Example 20, N-[2-[3-[(S or R)-[1-1(4aR,8aS)-3-Oxo-4,4a,5,7,8,8a-hexahydropyrido[4,3-b]11,4]oxazine-6-carbonyl]-4-piperidyfl-phenyl-methyl]phenoxy]ethyl]-3-[2-[2-(2-aminoethoxy)ethoxy]ethoxy]propanamide] the value was 7.94.
With `O=C(CCOCCNC(=O)CCc1ccc2n1[B-](F)(F)[N+]1=C(c3ccc[nH]3)C=CC1=C2)NCCOc1cccc(C(c2ccccc2)C2CCN(C(=O)N3CC[C@@H]4OCC(=O)N[C@@H]4C3)CC2)c1` (single isomer, unassigned) [Example 21, N-[2-[3-[2-[3-[(S or R)-[1-[(4aR,8aS)-3-oxo-4,4a,5,7,8,8a-hexahydropyrido[4,3-b][1,4]oxazine-6-carbonyl]-4-piperidyl]-phenyl-methyl]phenoxy]ethylamino]-3-oxo-propoxy]ethyl]-3-12,2-difluoro-12-(1H-pyrrol-2-yl)-3-aza-1-azonia-2-boranuidatricyclo[7.3.0.03,7]dodeca-1(12),4,6,8,10-pentaen-4-yl]propanamide], the pIC50 is 9.52.
For `O=C(CCOCCOCCOCCNc1ccc([N+](=O)[O-])c2nonc12)NCCOc1cccc([C@H](c2ccccc2)C2CCN(C(=O)N3CC[C@@H]4OCC(=O)N[C@@H]4C3)CC2)c1` (single isomer, unassigned) [Example 22, N-[2-[3-[(S or R)-11-1(4aR,8aS)-3-oxo-4,4a,5,7,8,8a-hexahydropyrido[4,3-b][1,4]oxazine-6-carbonyl]-4-piperidyl]-phenyl-methyl]phenoxy]ethyl]-3-[2-[2-[2-[(4-nitro-2,1,3-benzoxadiazol-7-yl)amino]ethoxy]ethoxy]ethoxy]propanamide] the value was 9.40; for `O=C(CCOCCOCCOCCNc1ccc([N+](=O)[O-])c2nonc12)NCCOc1cccc(C(c2ccccc2)C2CCN(C(=O)N3CC[C@@H]4OCC(=O)N[C@@H]4C3)CC2)c1` (stereo partly drawn) [Example 1, 3-(2-(2-(2-((7-Nitrobenzo[c][1,2,5]oxadiazol-4-yl)amino)ethoxy)ethoxy)ethoxy)-N-(2-(3-((1-((4aR,8aS)-3-oxooctahydro-2H-pyrido[4,3-b][1,4]oxazine-6-carbonyl)piperidin-4-yl)(phenyl)methyl)phenoxy)ethyl)propanamide], 9.00.
For `O=C(CCOCCNc1ccc([N+](=O)[O-])c2nonc12)NCCOc1cccc(C(c2ccccc2)C2CCN(C(=O)N3CC[C@@H]4OCC(=O)N[C@@H]4C3)CC2)c1` (stereo partly shown) [Example 2] the value was 8.92; for `O=C(CCOCCOCCNc1ccc([N+](=O)[O-])c2nonc12)NCCOc1cccc(C(c2ccccc2)C2CCN(C(=O)N3CC[C@@H]4OCC(=O)N[C@@H]4C3)CC2)c1` (stereo partly drawn) [Example 3, 3-(2-(2-((7-Nitrobenzo[c][1,2,5]oxadiazol-4-yl)amino)ethoxy)ethoxy)-N-(2-(3-((1-((4aR,8aS)-3-oxooctahydro-2H-pyrido[4,3-b][1,4]oxazine-6-carbonyl)piperidin-4-yl)(phenyl)methyl)phenoxy)ethyl)propanamide], 8.68.
For `CC(C)(C)OC(=O)NCCOc1cccc(C(=C2CCN(C(=O)N3CC[C@@H]4OCC(=O)N[C@@H]4C3)CC2)c2ccccc2)c1` [Example 23, tert-Butyl (2-(3-((1-((4aR,8aS)-3-oxooctahydro-2H-pyrido[4,3-b][1,4]oxazine-6-carbonyl)piperidin-4-ylidene)(phenyl)methyl)phenoxy)ethyl)carbamate] the value was 8.24; for `O=C1CO[C@H]2CCN(C(=O)N3CCC(=C(c4ccccc4)c4cccc(OCCNc5ccc([N+](=O)[O-])c6nonc56)c4)CC3)C[C@H]2N1` [Example 24], 8.26.

Source of the values: patent publication US20220220373A1, “FLUORESCENT PROBES FOR MONOACYLGLYCEROL LIPASE (MAGL)” (Hoffmann-La Roche Inc., priority 2019, published 2022).
